# Positions of bridges follow the written chain, without caps; N, C: chain ends. Non-standard residues stand in square brackets, D forms with d. Residues, ends and D or L forms follow the SMILES beside them. *: point of attachment. Malonyl(2,2-Me2,histaminyl) = CC(C)(C(=O)NCCc1cnc[nH]1)C(=O)*; Ala(1H-tetrazol-5-yl) = N[C@@H](Cc1nnn[nH]1)C(=O)O; αMeL = CC(C)C[C@](C)(N)C(=O)O; Nle = CCCC[C@H](N)C(=O)O; Aib = CC(C)(N)C(=O)O
# Key:
# human GLP2 receptor = target: T1, human GLP2 receptor (Homo sapiens, UniProt O95838); experiment: cAMP accumulation assay, functional agonism of human GLP2 receptor; format: cell-based; settings: HEK cells infected with human GLP2 receptor BacMam virus, HTRF cAMP; for Emax: HEK293, read-out: Human GLP-2R agonist cAMP Emax; for EC50: read-out: Human GLP-2R agonist cAMP pEC50 (converted)
# T1 construct: expressed in transfected cells; host or cells: HEK cells, BacMam virus transduction
# T1 sequence (O95838 1-553): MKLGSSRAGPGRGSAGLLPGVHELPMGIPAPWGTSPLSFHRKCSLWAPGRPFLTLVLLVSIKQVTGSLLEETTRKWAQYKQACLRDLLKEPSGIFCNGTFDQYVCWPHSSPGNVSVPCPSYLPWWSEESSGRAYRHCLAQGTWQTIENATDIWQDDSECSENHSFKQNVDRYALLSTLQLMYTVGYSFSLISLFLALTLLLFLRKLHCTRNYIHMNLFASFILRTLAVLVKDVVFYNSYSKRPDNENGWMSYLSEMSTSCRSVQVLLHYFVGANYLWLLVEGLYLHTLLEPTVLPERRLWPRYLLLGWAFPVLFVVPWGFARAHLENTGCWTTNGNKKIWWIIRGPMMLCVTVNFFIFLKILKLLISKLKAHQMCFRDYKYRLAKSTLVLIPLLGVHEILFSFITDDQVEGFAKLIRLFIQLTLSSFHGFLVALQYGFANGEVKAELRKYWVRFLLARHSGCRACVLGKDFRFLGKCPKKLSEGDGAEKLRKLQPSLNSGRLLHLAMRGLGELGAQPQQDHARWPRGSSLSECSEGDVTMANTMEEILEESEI
# Procedure: (§1) CAMP production upon agonist stimulation of human GLP2 or GLP1 receptor was assessed utilizing HiRange cAMP kit (Cisbio). In brief, HEK cells were infected with either human GLP2 or GLP1 receptor BacMam virus for 24 hours and frozen for later use in the assay. […] Cells were prepared in the assay buffer (HBSS (Lonza) supplemented with 0.5 mM IBMX (Tocris)). After 45 min incubation at 37° C., the reaction was stopped by addition of the HTRF detection reagents in the lysis buffer provided in the kit.
# human GLP1 receptor = target: T2, human GLP1 receptor (Homo sapiens, UniProt P43220); experiment: cAMP accumulation assay, functional agonism of human GLP1 receptor; format: cell-based; settings: HEK cells infected with human GLP1 receptor BacMam virus, HTRF cAMP; for Emax: HEK293, read-out: Human GLP-1R agonist cAMP Emax; for EC50: read-out: Human GLP-1R agonist cAMP pEC50 (converted)
# T2 construct: expressed in transfected cells; host or cells: HEK cells, BacMam virus transduction
# Procedure: as §1
# T2 sequence (P43220 24-463): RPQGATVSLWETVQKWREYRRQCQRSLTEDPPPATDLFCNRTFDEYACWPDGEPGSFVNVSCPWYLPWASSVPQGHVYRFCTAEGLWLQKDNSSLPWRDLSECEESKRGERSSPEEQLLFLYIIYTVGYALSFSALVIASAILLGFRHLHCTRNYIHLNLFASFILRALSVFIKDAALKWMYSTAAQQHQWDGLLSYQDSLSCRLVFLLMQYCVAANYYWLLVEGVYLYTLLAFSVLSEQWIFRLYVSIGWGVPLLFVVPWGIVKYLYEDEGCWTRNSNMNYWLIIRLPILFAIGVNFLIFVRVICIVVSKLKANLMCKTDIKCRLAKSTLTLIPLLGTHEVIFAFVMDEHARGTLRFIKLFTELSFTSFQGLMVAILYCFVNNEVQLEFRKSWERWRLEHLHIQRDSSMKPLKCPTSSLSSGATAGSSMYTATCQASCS
SMILES,Emax (human GLP2 receptor) [%],EC50 (human GLP2 receptor) [nM],Emax (human GLP1 receptor) [%],EC50 (human GLP1 receptor) [nM]
CCCC[C@@H]1NC(=O)[C@H](CCC(=O)O)NC(=O)[C@H](CC(=O)O)NC(=O)[C@@H](NC(=O)[C@H](Cc2ccccc2)NC(=O)[C@H](CO)NC(=O)CNC(=O)[C@H](Cc2nn[nH]n2)NC(=O)C(C)(C)C(=O)NCCc2c[nH]cn2)CCC(=O)NCCCC[C@@H](C(=O)N[C@H]2CCC(=O)NCCCC[C@@H](C(=O)N[C@H]3CCC(=O)NCCCC[C@@H](C(=O)N[C@@H](CC(=O)O)C(=O)N[C@@H](Cc4ccccc4)C(=O)N[C@H](C(=O)N[C@H]4CCC(=O)NCCCC[C@@H](C(=O)N[C@H]5CCCCNC(=O)CC[C@@H](C(N)=O)NC(=O)[C@H]([C@@H](C)O)NC(=O)[C@H]([C@@H](C)CC)NC(=O)[C@H](CCCCN)NC5=O)NC(=O)[C@H]([C@@H](C)CC)NC(=O)[C@H](CC(C)C)NC(=O)[C@H](Cc5c[nH]c6ccccc56)NC4=O)[C@@H](C)CC)NC(=O)[C@H](C)NC(=O)[C@H](C)NC3=O)NC(=O)[C@H](CC(=O)O)NC(=O)[C@H](CC(C)C)NC(=O)[C@H]([C@@H](C)CC)NC2=O)NC1=O [Example 80],99.9,0.2,64.1,3.98
"CCCC[C@@H]1NC(=O)[C@H](CCC(=O)O)NC(=O)[C@H](CC(=O)O)NC(=O)[C@@H](NC(=O)[C@H](Cc2ccccc2)NC(=O)[C@H](CO)NC(=O)CNC(=O)[C@H](Cc2nn[nH]n2)NC(=O)C(C)(C)C(=O)NCCc2c[nH]cn2)CCC(=O)NCCCC[C@@H](C(=O)N[C@H]2CCC(=O)NCCCC[C@@H](C(=O)N[C@H]3CCCCNC(=O)C[C@@H](C(=O)N[C@@H](Cc4ccccc4)C(=O)N[C@H](C(=O)N[C@H]4CCC(=O)NCCCC[C@@H](C(=O)N[C@H]5CCCCNC(=O)CC[C@@H](C(N)=O)NC(=O)[C@H]([C@@H](C)O)NC(=O)[C@H]([C@@H](C)CC)NC(=O)[C@H](CCCCN)NC5=O)NC(=O)[C@H]([C@@H](C)CC)NC(=O)[C@H](CC(C)C)NC(=O)[C@H](Cc5c[nH]c6ccccc56)NC4=O)[C@@H](C)CC)NC(=O)[C@H](CCCCN)NC(=O)[C@H](C)NC(=O)[C@H](C)NC3=O)NC(=O)[C@H](CC(=O)O)NC(=O)[C@H](CC(C)C)NC(=O)[C@H]([C@@H](C)CC)NC2=O)NC1=O [Example 81] ({Malonyl(2,2-Me2,histaminyl)}-[Ala(1H-tetrazol-5-yl)]GSFEDE[Nle]KEILDKKAAKDFIEWLIKKKITE-NH2; lactam 5-9, 10-14, 15-19, 22-26, 27-31; C-terminus assumed)",91.6,0.631,56.1,3.16
"CCCC[C@@H]1NC(=O)[C@H](CCC(=O)O)NC(=O)[C@@H](NC(=O)[C@H](CO)NC(=O)[C@H](Cc2ccccc2)NC(=O)[C@H](CO)NC(=O)CNC(=O)[C@H](Cc2nn[nH]n2)NC(=O)C(C)(C)C(=O)NCCc2c[nH]cn2)CCCCNC(=O)C[C@@H](C(=O)N[C@H](C(=O)N[C@@H](CC(C)C)C(=O)N[C@@H](CC(=O)O)C(=O)N[C@@H](CC(C)C)C(=O)N[C@@H](CCCCN)C(=O)N[C@@H](C)C(=O)N[C@@H](C)C(=O)N[C@@H](CCCCN)C(=O)N[C@@H](CC(=O)O)C(=O)N[C@@H](Cc2ccccc2)C(=O)N[C@H](C(=O)N[C@@H](CC(N)=O)C(=O)N[C@@H](Cc2c[nH]c3ccccc23)C(=O)N[C@@H](CC(C)C)C(=O)N[C@H](C(=O)N[C@@H](CCC(N)=O)C(=O)N[C@H](C(=O)N[C@@H](CCCCN)C(=O)N[C@H](C(=O)N[C@H](C(=O)N[C@@H](Cc2ccccc2)C(N)=O)[C@@H](C)O)[C@@H](C)CC)[C@@H](C)O)[C@@H](C)CC)[C@@H](C)CC)[C@@H](C)CC)NC(=O)[C@@H](Cc2ccccc2)NC1=O [Example 82] ({Malonyl(2,2-Me2,histaminyl)}-[Ala(1H-tetrazol-5-yl)]GSFSKE[Nle][dF]DILDLKAAKDFINWLIQTKITF-NH2; lactam 6-10 (inferred); C-terminus assumed)",104,0.0794,94.5,12.6

# Now from value to compound:
Emax (human GLP2 receptor) [%],EC50 (human GLP2 receptor) [nM],Emax (human GLP1 receptor) [%],EC50 (human GLP1 receptor) [nM],SMILES
99.7,0.1,96.9,1,"CCCC[C@H](NC(=O)[C@H](CCC(=O)O)NC(=O)[C@@H]1CC(=O)NCCCC[C@H](NC(=O)[C@H](CCC(N)=O)NC(=O)C(C)(C)NC(=O)[C@@H](N)Cc2c[nH]cn2)C(=O)N[C@@H](CO)C(=O)N[C@@H](Cc2ccccc2)C(=O)N[C@@H](CO)C(=O)N1)C(=O)N[C@H](Cc1ccccc1)C(=O)N[C@H](C(=O)N[C@@](C)(CC(C)C)C(=O)N[C@@H](CC(C)C)C(=O)N[C@@H](CC(=O)O)C(=O)N[C@H]1CCC(=O)NCCCC[C@@H](C(=O)N[C@@H](CC(=O)O)C(=O)N[C@@H](Cc2ccccc2)C(=O)N[C@H](C(=O)N[C@H]2CCC(=O)NCCCC[C@@H](C(=O)N[C@H]3CCC(=O)NCCCC[C@@H](C(N)=O)NC(=O)[C@H]([C@@H](C)O)NC(=O)[C@H]([C@@H](C)CC)NC(=O)[C@H](CCCCN)NC3=O)NC(=O)[C@H]([C@@H](C)CC)NC(=O)[C@H](CC(C)C)NC(=O)[C@H](Cc3c[nH]c4ccccc34)NC2=O)[C@@H](C)CC)NC(=O)[C@H](C)NC(=O)[C@H](C)NC(=O)[C@H](CCCCN)NC1=O)[C@@H](C)O [Example 63] (H-H[Aib]QKSFSDE[Nle][dF]T[αMeL]LDEKAAKDFIEWLIKEKITK-NH2; lactam 4-8, 16-20, 24-28, 29-33 (inferred); C-terminus assumed)"
103,0.0794,94,0.316,"CCCC[C@H](NC(=O)[C@H](CCC(=O)O)NC(=O)[C@@H]1CC(=O)NCCCC[C@H](NC(=O)[C@H](CC(=O)O)NC(=O)C(C)(C)C(=O)NCCc2c[nH]cn2)C(=O)N[C@@H](CO)C(=O)N[C@@H](Cc2ccccc2)C(=O)N[C@@H](CO)C(=O)N1)C(=O)N[C@H](Cc1ccccc1)C(=O)N[C@H](C(=O)N[C@@](C)(CC(C)C)C(=O)N[C@@H](CC(C)C)C(=O)N[C@@H](CC(=O)O)C(=O)N[C@H]1CCC(=O)NCCCC[C@@H](C(=O)N[C@@H](CC(=O)O)C(=O)N[C@@H](Cc2ccccc2)C(=O)N[C@H](C(=O)N[C@H]2CCC(=O)NCCCC[C@@H](C(=O)N[C@H]3CCC(=O)NCCCC[C@@H](C(N)=O)NC(=O)[C@H]([C@@H](C)O)NC(=O)[C@H]([C@@H](C)CC)NC(=O)[C@H](CCCCN)NC3=O)NC(=O)[C@H]([C@@H](C)CC)NC(=O)[C@H](CC(C)C)NC(=O)[C@H](Cc3c[nH]c4ccccc34)NC2=O)[C@@H](C)CC)NC(=O)[C@H](C)NC(=O)[C@H](C)NC(=O)[C@H](CCCCN)NC1=O)[C@@H](C)O [Example 68] ({Malonyl(2,2-Me2,histaminyl)}-DKSFSDE[Nle][dF]T[αMeL]LDEKAAKDFIEWLIKEKITK-NH2; lactam 2-6, 14-18, 22-26, 27-31 (inferred); C-terminus assumed)"
95,0.501,83.7,6.31,"CCCC[C@H](NC(=O)[C@H](CCC(=O)O)NC(=O)[C@@H]1CC(=O)NCCCC[C@H](NC(=O)[C@H](CCC(N)=O)NC(=O)C(C)(C)C(=O)NCCc2c[nH]cn2)C(=O)N[C@@H](CO)C(=O)N[C@@H](Cc2ccccc2)C(=O)N[C@@H](CO)C(=O)N1)C(=O)N[C@H](Cc1ccccc1)C(=O)N[C@H](C(=O)N[C@@](C)(CC(C)C)C(=O)N[C@@H](CC(C)C)C(=O)N[C@@H](CC(=O)O)C(=O)N[C@H]1CCC(=O)NCCCC[C@@H](C(=O)N[C@@H](CC(=O)O)C(=O)N[C@@H](Cc2ccccc2)C(=O)N[C@H](C(=O)N[C@H]2CCC(=O)NCCCC[C@@H](C(=O)N[C@H]3CCC(=O)NCCCC[C@@H](C(N)=O)NC(=O)[C@H]([C@@H](C)O)NC(=O)[C@H]([C@@H](C)CC)NC(=O)[C@H](CCCCN)NC3=O)NC(=O)[C@H]([C@@H](C)CC)NC(=O)[C@H](CC(C)C)NC(=O)[C@H](Cc3c[nH]c4ccccc34)NC2=O)[C@@H](C)CC)NC(=O)[C@H](C)NC(=O)[C@H](C)NC(=O)[C@H](CCCCN)NC1=O)[C@@H](C)O [Example 69] ({Malonyl(2,2-Me2,histaminyl)}-QKSFSDE[Nle][dF]T[αMeL]LDEKAAKDFIEWLIKEKITK-NH2; lactam 2-6, 14-18, 22-26, 27-31 (inferred); C-terminus assumed)"

# From US20240270809A1, “ORAL GLP RECEPTOR AGONISTS” (priority 2020, published 2024)
